This note sets out measurements from patent US11236055B2 (Venenum Biodesign, LLC, priority 2016, dated 2022).

Holding throughout (assay type): cell-based
In one experiment the target is T1, human TGR5 receptor (Homo sapiens, UniProt Q8TDU6).
T1 construct: host or cells: CHO-K1 (hTGR5-CHO cells)
T1 sequence (Q8TDU6 1-330): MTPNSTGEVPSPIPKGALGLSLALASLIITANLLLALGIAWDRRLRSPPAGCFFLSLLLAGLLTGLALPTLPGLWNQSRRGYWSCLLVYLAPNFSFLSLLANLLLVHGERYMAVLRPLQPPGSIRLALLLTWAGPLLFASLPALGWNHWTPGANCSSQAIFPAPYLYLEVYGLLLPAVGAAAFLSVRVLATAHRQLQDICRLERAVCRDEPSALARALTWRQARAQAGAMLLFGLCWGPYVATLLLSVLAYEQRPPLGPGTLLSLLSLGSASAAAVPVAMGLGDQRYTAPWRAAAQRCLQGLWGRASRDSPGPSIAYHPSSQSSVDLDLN
Briefly: Human TGR5 cAMP production assay. As to conditions: human TGR5, luminescent cAMP assay; coded A-D; read-out: Human TGR5 Lum. cAMP Activity (EC50). In short, it runs like this: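 CHO-K1 cells stably expressing human TGR5, with IBMX and cAMP antibody, were exposed to half-log serially diluted compound for 1 h at room temperature. cAMP measured by enzyme-fragment complementation luminescence (XS+ kit) after overnight incubation; EC50 values reported.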
For orientation: cAMP levels reflect the balance of adenylyl cyclase and phosphodiesterase activity.

Experiment [1] has as its target T2, mouse TGR5 receptor (Mus musculus, UniProt Q80SS6).
T2 construct: expressed in transfected cells; host or cells: HEK293-EBNA (293 c18, ATCC CRL10852), Hygromycin B selection
T2 sequence (Q80SS6 1-329): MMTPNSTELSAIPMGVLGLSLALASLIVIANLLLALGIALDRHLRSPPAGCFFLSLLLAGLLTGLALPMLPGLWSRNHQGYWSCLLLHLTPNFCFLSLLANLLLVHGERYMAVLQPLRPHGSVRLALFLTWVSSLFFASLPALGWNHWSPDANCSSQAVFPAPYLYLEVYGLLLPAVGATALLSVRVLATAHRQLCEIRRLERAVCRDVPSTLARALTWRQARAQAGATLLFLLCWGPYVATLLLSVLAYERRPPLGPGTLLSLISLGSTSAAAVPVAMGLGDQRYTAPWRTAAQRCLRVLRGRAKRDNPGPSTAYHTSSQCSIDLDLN
Briefly: Mouse TGR5 cAMP production assay (luminescent, DiscoveRx cAMP XS+). As to conditions: HEK293-EBNA cells overexpressing mouse TGR5, luminescent cAMP XS+; coded A-D; read-out: Mouse TGR5 Lum. cAMP Activity (EC50). From the text: Mouse TGR5 cAMP Production Assay
We evaluated compounds of the present invention for their ability to induce cAMP production in HEK-EBNA cells overexpressing the mouse TGR5 receptor. Human embryonic kidney cells (HEK293-EBNA) stably expressing mouse TGR5 receptor were established using the following procedure. Specifically, a commercially-obtained gene encoding mouse TGR5 (accession number BC116914) from Thermo Scientific (Waltham, Mass.) was cloned into an episomal expression vector. The resulting expression plasmid was then transfected into 293 c18 (ATCC® CRL10852™) cells, which express the Epstein-Barr virus nuclear antigen EBNA1 and can support the replication of episomal vectors. Selection for the plasmid was maintained with Hygromycin B. Cells were cultured and maintained in DMEM (Sigma; cat #6429) supplemented with 10% Fetal Bovine Serum, 1% penicillin/streptomycin, 2 mM L-alanine L-glutamine (GlutaMax), and 250 μg/mL Hygromycin.
Two cAMP production assays were developed.
1. Luminescent cAMP Production Assay
In this first cAMP production assay, the cAMP production was measured using DiscoveRx's cAMP XS+ kit following the manufacturer's recommended protocol.
Briefly, HEK293-EBNA cells stably overexpressing mouse TGR5 were harvested using non-enzymatic cell dissociation buffer (Sigma-Aldrich, St. Louis, Mo.), spun down, then resuspended in serum-free DMEM with 500 μM IBMX at a density of 1.25×10^6 cells/mL. 500 μL of cAMP antibody solution was added to […] of cell suspension and incubated at room temperature for 20 min.
Test compounds were serially diluted (half-log dilutions) in DMSO and then further diluted 1:50 in PBS, 10 mM HEPES buffer. 2 μL of serially diluted compound was added to a 384-well low volume plate (Greiner cat #784075) and centrifuged briefly. 2 μL of the cell/cAMP antibody mixture was then added to each compound-containing well and allowed to incubate at room temperature for one (1) hour. Following incubation, the XS+ kits' ED/Lysis/CL Substrate Working Solution was prepared following the manufacturer's recommended protocol and 4 μL was added to each well of the plate. The plate was then incubated for one (1) hour at room temperature. Following incubation, 4 μL of (Enzyme Acceptor) EA reagent was added to the plate and allowed to incubate overnight at room temperature. Luminescent signal was then detected using the Viewlux instrument (Perkin-Elmer, Waltham, Mass.).
In Table 33, EC50 values for both human and mouse cells were determined according to the TGR5 cAMP assays described above.

Experiment [2] addresses T2, mouse TGR5 receptor. Briefly: Mouse TGR5 cAMP production assay (HTRF, Cisbio cAMP HiRange). As to conditions: HEK293-EBNA cells overexpressing mouse TGR5, HTRF cAMP HiRange; coded A-D. In short, it runs like this:
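cAMP read by HTRF competition after 1 h room-temperature compound exposure of mouse TGR5-overexpressing HEK293-EBNA cells. Cells were suspended in serum-free DMEM containing 500 μM IBMX; compounds ran as 12-point half-log dilutions in duplicate; EC50 derived.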

Consider `CCC(NS(=O)(=O)c1cccc(C(F)(F)F)c1)c1cccc(-c2ccncc2C)c1` (racemic) [Compound 5AU, (+/−)N-(1-(3-(3-methylpyridin-4-yl)phenyl)propyl)-3-(trifluoromethyl)benzenesulfonamide], for which the EC50 at human TGR5 receptor and on mouse TGR5 receptor [1] was 100 to 999 nM in each case.
`Cc1cnccc1-c1cccc(C2CN(C(=O)CCC(=O)O)CCN2S(=O)(=O)c2ccccc2C)c1` (centres unmarked) [Compound 46AI, 4-(3-(3-(3-methylpyridin-4-yl)phenyl)-4-(o-tolylsulfonyl)piperazin-1-yl)-4-oxobutanoic acid]: the results for the 50% effective concentration (EC50) on mouse TGR5 receptor [2] and at human TGR5 receptor were less than 100 nM and 100 to 999 nM, respectively.
Regarding `COc1cccc(S(=O)(=O)N2CCN(C(=O)CCC(=O)O)CC2c2cccc(-c3ccncc3C)c2)c1` (centres unmarked) [Compound 46AJ, 4-(4-((3-methoxyphenyl)sulfonyl)-3-(3-(3-methylpyridin-4-yl)phenyl)piperazin-1-yl)-4-oxobutanoic acid], the values for the EC50 at mouse TGR5 receptor [2] and at human TGR5 receptor were 100 to 999 nM and 1000 to 30000 nM, respectively.
The corresponding values for `Cc1cnccc1-c1cccc(C2CN(C(=O)CCC(=O)O)CCN2S(=O)(=O)c2cccc(Cl)c2Cl)c1` (centres unmarked) [Compound 46AK, 4-(4-((2,3-dichlorophenyl)sulfonyl)-3-(3-(3-methylpyridin-4-yl)phenyl)piperazin-1-yl)-4-oxobutanoic acid] are less than 100 nM and 100 to 999 nM.
The corresponding values for `Cc1cnccc1-c1cccc(C2CN(C(=O)CCC(=O)O)CCN2S(=O)(=O)c2ccc(F)cc2C(F)(F)F)c1` (centres unmarked) [Compound 46AL] are 100 to 999 nM and 100 to 999 nM.
As to `Cc1cnccc1-c1cccc(C2CN(C(=O)CS(=O)(=O)O)CCN2S(=O)(=O)c2ccccc2C)c1` (centres unmarked) [Compound 49AA, 2-(3-(3-(3-methylpyridin-4-yl)phenyl)-4-(o-tolylsulfonyl)piperazin-1-yl)-2-oxoethanesulfonic acid], the concentration giving a half-maximal response (EC50) is less than 100 nM on mouse TGR5 receptor [2] and 100 to 999 nM at human TGR5 receptor.
The corresponding values for `COc1cccc(S(=O)(=O)N2CCN(C(=O)CS(=O)(=O)O)CC2c2cccc(-c3ccncc3C)c2)c1` (centres unmarked) [Compound 49AB, 2-(4-((3-methoxyphenyl)sulfonyl)-3-(3-(3-methylpyridin-4-yl)phenyl)piperazin-1-yl)-2-oxoethanesulfonic acid] are less than 100 nM and 100 to 999 nM.
Taken in the same sequence, the figures for `Cc1cnccc1-c1cccc(C2CN(C(=O)CS(=O)(=O)O)CCN2S(=O)(=O)c2cccc(Cl)c2Cl)c1` (centres unmarked) [Compound 49AC, 2-(4-((2,3-dichlorophenyl)sulfonyl)-3-(3-(3-methylpyridin-4-yl)phenyl)piperazin-1-yl)-2-oxoethanesulfonic acid] were less than 100 nM and less than 100 nM.
Taken in the same sequence, the figures for `Cc1c(Cl)cccc1S(=O)(=O)N1CCN(C(=O)CS(=O)(=O)O)CC1c1cccc(-c2ccncc2)c1` (centres unmarked) [Compound 49AD, 2-(4-((3-chloro-2-methylphenyl)sulfonyl)-3-(3-(pyridin-4-yl)phenyl)piperazin-1-yl)-2-oxoethanesulfonic acid] were 100 to 999 nM and 100 to 999 nM.
On to `Cc1c(Cl)cccc1S(=O)(=O)N1CCN(C(=O)CS(=O)(=O)O)CC1c1cccc(-c2ccncc2Cl)c1` (centres unmarked) [Compound 49AE, 2-(4-((3-chloro-2-methylphenyl)sulfonyl)-3-(3-(3-chloropyridin-4-yl)phenyl)piperazin-1-yl)-2-oxoethanesulfonic acid], for which the EC50 on mouse TGR5 receptor [2] is less than 100 nM; at human TGR5 receptor, 100 to 999 nM.
As to `COc1cnccc1-c1cccc(C2CN(C(=O)CS(=O)(=O)O)CCN2S(=O)(=O)c2cccc(Cl)c2C)c1` (centres unmarked) [Compound 49AF, 2-(4-((3-chloro-2-methylphenyl)sulfonyl)-3-(3-(3-methoxypyridin-4-yl)phenyl)piperazin-1-yl)-2-oxoethanesulfonic acid], the EC50 at mouse TGR5 receptor [2] and on human TGR5 receptor was less than 100 nM throughout.
Take `Cc1cnccc1-c1cccc(C2CN(C(=O)CS(=O)(=O)O)CCN2S(=O)(=O)c2ccccc2C(F)(F)F)c1` (centres unmarked) [Compound 49AG, 2-(3-(3-(3-methylpyridin-4-yl)phenyl)-4-((2-(trifluoromethyl)phenyl)sulfonyl)piperazin-1-yl)-2-oxoethanesulfonic acid]: the EC50 is less than 100 nM on mouse TGR5 receptor [2] and 100 to 999 nM on human TGR5 receptor.
The corresponding values for `CCc1cnccc1-c1cccc(C2CN(C(=O)CP(=O)(O)O)CCN2S(=O)(=O)c2cccc(Cl)c2C)c1` (centres unmarked) [Compound 50] are less than 100 nM and 100 to 999 nM.
The corresponding values for `CCc1cnccc1-c1cccc(C2CN(CC(=O)O)CCN2S(=O)(=O)c2cccc(Cl)c2C)c1` (centres unmarked) [Compound 51, 2-(4-((3-Chloro-2-methylphenyl)sulfonyl)-3-(3-(3-ethylpyridin-4-yl)phenyl)piperazin-1-yl)acetic acid] are 100 to 999 nM and 100 to 999 nM.
Turning to `Cc1cnccc1-c1cccc(C2CN(CCCC(=O)O)CCN2S(=O)(=O)c2cccc(Cl)c2C)c1` (centres unmarked) [Compound 52, 4-(4-((3-chloro-2-methylphenyl)sulfonyl)-3-(3-(3-methylpyridin-4-yl)phenyl)piperazin-1-yl)butanoic acid], the EC50 on mouse TGR5 receptor [2] and at human TGR5 receptor was 100 to 999 nM each time.
Take `Cc1cnccc1-c1cccc(C2CN(CCCC(=O)NCCS(=O)(=O)O)CCN2S(=O)(=O)c2cccc(Cl)c2C)c1` (centres unmarked) [Compound 53AA, 2-(4-(4-((3-chloro-2-methylphenyl)sulfonyl)-3-(3-(3-methylpyridin-4-yl)phenyl)piperazin-1-yl)butanamido)ethanesulfonic acid]: the EC50 was less than 100 nM on mouse TGR5 receptor [2] and 100 to 999 nM at human TGR5 receptor.
Taken in the same sequence, the figures for `CCc1cnccc1-c1cccc(C2CN(C(=O)CCC(=O)NCCS(=O)(=O)O)CCN2S(=O)(=O)c2cccc(Cl)c2C)c1` (centres unmarked) [Compound 53AB, 2-(4-(4-((3-chloro-2-methylphenyl)sulfonyl)-3-(3-(3-ethylpyridin-4-yl)phenyl)piperazin-1-yl)-4-oxobutanamido)ethanesulfonic acid] were less than 100 nM and 100 to 999 nM.
The corresponding values for `CCc1cnccc1-c1cccc(C2CN(C(=O)CCC(=O)NCCCS(=O)(=O)O)CCN2S(=O)(=O)c2cccc(Cl)c2C)c1` (centres unmarked) [Compound 53AC, 3-(4-(4-((3-chloro-2-methylphenyl)sulfonyl)-3-(3-(3-ethylpyridin-4-yl)phenyl)piperazin-1-yl)-4-oxobutanamido)propane-1-sulfonic acid] are less than 100 nM and 100 to 999 nM.
Taken in the same sequence, the figures for `Cc1cnccc1-c1cccc(C2CCCCN2S(=O)(=O)c2ccccc2C(F)(F)F)c1` (centres unmarked) [Compound 54, 3-methyl-4-(3-(1-((2-(trifluoromethyl)phenyl)sulfonyl)piperidin-2-yl)phenyl)pyridine] were 100 to 999 nM and less than 100 nM.

As a reminder, the EC50 is the midpoint of the concentration-response curve.
